The target of experiment [1] is T1, Adrenergic receptor alpha-1 (Rattus norvegicus, UniProt P15823+P23944+P43140).
T1 sequence (P15823 whole entry): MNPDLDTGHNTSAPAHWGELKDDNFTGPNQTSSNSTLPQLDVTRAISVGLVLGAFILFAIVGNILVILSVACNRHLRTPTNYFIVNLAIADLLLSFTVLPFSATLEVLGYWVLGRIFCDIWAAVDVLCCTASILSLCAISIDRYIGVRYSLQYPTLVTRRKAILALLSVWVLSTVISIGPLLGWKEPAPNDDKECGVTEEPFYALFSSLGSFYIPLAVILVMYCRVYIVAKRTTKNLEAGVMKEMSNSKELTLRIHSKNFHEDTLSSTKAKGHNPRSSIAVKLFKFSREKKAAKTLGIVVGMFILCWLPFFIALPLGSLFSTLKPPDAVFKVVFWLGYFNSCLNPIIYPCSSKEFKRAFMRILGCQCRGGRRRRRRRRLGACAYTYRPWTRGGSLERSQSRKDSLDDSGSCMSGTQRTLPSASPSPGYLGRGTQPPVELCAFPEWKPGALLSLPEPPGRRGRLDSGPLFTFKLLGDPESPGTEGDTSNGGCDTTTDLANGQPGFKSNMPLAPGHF
T1 sequence (P23944 whole entry): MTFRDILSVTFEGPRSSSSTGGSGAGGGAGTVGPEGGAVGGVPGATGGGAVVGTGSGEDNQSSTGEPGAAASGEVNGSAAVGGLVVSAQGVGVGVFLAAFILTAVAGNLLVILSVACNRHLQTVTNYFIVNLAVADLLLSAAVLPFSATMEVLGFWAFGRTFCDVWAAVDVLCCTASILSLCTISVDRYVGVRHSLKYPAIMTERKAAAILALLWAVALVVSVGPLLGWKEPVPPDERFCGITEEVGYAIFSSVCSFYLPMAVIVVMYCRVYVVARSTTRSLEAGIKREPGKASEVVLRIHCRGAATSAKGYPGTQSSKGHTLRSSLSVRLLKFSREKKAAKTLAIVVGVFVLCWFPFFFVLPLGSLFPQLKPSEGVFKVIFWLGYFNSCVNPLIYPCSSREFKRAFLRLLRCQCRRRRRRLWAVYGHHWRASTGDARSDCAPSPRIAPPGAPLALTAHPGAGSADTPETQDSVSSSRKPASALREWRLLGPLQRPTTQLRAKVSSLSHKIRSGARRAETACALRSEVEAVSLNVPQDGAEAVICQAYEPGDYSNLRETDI
T1 sequence (P43140 whole entry): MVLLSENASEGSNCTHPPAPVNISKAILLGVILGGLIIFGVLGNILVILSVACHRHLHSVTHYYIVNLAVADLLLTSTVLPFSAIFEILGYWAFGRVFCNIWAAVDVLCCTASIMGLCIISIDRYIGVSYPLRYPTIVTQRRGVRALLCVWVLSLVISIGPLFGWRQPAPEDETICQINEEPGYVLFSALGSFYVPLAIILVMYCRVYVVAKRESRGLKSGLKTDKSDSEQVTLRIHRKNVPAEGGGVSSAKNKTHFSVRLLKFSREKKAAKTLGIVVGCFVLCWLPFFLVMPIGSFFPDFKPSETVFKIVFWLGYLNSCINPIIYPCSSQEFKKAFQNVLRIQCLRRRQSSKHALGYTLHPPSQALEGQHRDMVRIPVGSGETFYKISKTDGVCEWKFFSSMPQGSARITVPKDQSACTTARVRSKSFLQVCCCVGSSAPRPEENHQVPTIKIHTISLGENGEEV
Description: Displacement of [3H]prazosin from alpha-1 adrenergic receptor in rat cerebral cortex after 60 mins by liquid scintillation counting analysis

Experiment [2] concerns the target T2, Adrenergic receptor alpha-2 (Rattus norvegicus, UniProt P22086+P19328+P22909).
T2 sequence (P22086 whole entry): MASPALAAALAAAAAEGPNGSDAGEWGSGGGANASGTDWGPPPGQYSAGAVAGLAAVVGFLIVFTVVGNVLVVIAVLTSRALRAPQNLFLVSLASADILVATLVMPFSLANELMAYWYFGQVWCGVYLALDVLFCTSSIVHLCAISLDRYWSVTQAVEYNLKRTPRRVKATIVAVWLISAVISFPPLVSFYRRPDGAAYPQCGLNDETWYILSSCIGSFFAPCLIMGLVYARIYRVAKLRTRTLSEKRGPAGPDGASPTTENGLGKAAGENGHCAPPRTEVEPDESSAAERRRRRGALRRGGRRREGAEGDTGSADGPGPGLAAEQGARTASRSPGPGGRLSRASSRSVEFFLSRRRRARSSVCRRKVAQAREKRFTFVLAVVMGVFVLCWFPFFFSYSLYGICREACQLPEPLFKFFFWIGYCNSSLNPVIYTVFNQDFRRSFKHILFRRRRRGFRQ
T2 sequence (P19328 whole entry): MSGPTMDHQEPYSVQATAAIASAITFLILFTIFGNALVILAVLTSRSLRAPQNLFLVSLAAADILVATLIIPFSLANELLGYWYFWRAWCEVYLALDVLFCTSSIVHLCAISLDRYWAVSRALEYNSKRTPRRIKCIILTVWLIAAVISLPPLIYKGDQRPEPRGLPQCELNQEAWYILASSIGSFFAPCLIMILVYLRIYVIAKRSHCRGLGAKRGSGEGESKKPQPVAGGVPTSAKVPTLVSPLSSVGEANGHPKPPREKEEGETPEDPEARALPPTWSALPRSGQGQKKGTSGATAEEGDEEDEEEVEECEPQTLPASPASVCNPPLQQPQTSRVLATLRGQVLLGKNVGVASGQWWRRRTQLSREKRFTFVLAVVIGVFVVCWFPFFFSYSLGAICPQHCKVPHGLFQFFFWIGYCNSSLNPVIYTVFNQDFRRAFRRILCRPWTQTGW
T2 sequence (P22909 whole entry): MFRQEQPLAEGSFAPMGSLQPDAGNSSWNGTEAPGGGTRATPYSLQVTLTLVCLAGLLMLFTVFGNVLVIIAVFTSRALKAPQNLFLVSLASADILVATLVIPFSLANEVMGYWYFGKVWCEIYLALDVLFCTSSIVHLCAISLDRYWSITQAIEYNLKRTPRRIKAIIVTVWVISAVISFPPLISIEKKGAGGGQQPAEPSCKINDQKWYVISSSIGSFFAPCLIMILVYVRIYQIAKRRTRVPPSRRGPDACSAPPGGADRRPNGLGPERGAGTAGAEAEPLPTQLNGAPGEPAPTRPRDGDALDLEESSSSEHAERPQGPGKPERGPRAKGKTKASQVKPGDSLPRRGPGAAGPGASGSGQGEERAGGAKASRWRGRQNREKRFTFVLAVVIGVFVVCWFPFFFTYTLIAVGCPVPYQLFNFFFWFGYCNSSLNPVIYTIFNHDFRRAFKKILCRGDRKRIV
Description: Displacement of [3H]rauwolscine from alpha-2 adrenergic receptor in rat cerebral cortex after 60 mins by liquid scintillation counting analysis

For experiment [3], the target named is 5-hydroxytryptamine receptor 2A (Rattus norvegicus, UniProt P14842). The experiment in a line: Displacement of [3H]ketanserin from 5HT2A receptor in rat cerebral cortex after 15 mins by liquid scintillation counting analysis. The class given is tissue-based.

Structures are written as SMILES. Bounds are passed on as bounds.

5-hydroxytryptamine receptor 2A, sequence (P14842 whole entry): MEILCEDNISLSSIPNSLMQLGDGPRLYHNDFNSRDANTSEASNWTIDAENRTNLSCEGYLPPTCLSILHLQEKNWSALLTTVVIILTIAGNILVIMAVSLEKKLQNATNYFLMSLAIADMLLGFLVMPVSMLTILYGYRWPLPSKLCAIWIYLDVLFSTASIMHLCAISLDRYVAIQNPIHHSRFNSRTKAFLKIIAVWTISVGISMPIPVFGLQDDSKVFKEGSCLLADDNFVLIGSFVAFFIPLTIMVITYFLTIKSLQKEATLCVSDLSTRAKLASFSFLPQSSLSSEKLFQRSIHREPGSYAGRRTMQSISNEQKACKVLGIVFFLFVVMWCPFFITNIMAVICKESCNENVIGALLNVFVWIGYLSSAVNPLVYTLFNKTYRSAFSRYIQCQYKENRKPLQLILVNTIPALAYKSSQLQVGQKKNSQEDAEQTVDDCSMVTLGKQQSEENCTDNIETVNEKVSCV

As to `Cc1c(C)c2ccc(OCCCCN3CCC(c4noc5cc(F)ccc45)CC3)cc2oc1=O`, the Ki (in general, a measure of affinity in units of concentration, obtained from inhibition or displacement) in experiment [1] is 139.2 nM; in experiment [2], 124.3 nM; in experiment [3] it was 0.3 nM.

As for `Cc1cc(=O)oc2c(Cl)c(OCCCCN3CCC(c4noc5cc(F)ccc45)CC3)ccc12`, the inhibition constant (Ki) in experiment [1] was found to be 2569.2 nM; in experiment [2], 15.6 nM; in experiment [3] it was 0.3 nM.

`Cc1cc(=O)oc2cc(OCCCCN3CCC(c4noc5cc(F)ccc45)CC3)ccc12`: the Ki was 15.8 nM in experiment [1], 159.6 nM in experiment [2] and 8.4 nM in experiment [3].

On to `COc1ccccc1N1CCN(CCCCOc2ccc3c(C)cc(=O)oc3c2)CC1`, for which the inhibition constant (Ki) is 6.1 nM in experiment [1], 86.9 nM in experiment [2] and 8 nM in experiment [3].

In the case of `O=c1cc(-c2ccccc2)c2ccc(OCCCCN3CCC(c4noc5cc(F)ccc45)CC3)cc2o1`, the values for the Ki in experiment [1], in experiment [2] and in experiment [3] were over 10000 nM, 46.9 nM and 9.2 nM, respectively.

For the compound `Cc1cc(=O)oc2c(C)c(OCCCCN3CCC(c4noc5cc(F)ccc45)CC3)ccc12`, the Ki was 121.2 nM in experiment [1], 598.6 nM in experiment [2] and 0.9 nM in experiment [3].
